The assay concerns the target Alkaline phosphatase, placental type (Homo sapiens, UniProt P05187). The experiment in a line: activation of placental alkaline phosphatase – biochemical, uHTS hits, mouse IAP activator project, dose response (AID 488878).

From BindingDB's records for doi:10.7270/Q2SJ1J25 (Burnham Center For Chemical Genomics, 2010) come the findings set out here.

Structures are written as SMILES.

The term EC50 denotes the concentration needed to bring the measured effect to its halfway point.

Chain of Alkaline phosphatase, placental type (P05187 whole entry, looked up): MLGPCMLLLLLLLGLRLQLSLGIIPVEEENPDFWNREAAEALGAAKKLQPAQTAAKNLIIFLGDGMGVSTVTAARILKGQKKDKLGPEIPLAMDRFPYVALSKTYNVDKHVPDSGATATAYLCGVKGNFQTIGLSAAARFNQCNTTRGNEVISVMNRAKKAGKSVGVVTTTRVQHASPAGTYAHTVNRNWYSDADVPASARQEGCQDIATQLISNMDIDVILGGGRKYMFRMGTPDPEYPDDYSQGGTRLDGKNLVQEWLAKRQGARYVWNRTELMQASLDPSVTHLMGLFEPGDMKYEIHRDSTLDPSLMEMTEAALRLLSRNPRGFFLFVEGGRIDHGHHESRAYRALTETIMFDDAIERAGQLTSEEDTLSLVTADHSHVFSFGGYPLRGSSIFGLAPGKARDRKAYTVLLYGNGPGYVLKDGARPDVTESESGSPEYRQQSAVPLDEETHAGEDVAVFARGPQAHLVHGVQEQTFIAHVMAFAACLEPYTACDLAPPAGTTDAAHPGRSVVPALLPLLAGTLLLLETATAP

Take `O=c1ccc2cc3c([nH]c4ccc(Br)cc43)oc-2c1O` [9-bromo-4-hydroxy-6H-[1]benzopyrano[2,3-b]indol-3-one]: the EC50 stood at 24.1 µM. The result for `CS(=O)(=O)c1ccc2c(c1)sc1nc(=O)c(/C=C3/C=CC(=O)C(O)=C3)c(N)n12` [SMR000415838] reads 83.5 µM. Then `Nc1c(/C=C2/C=CC(=O)C(O)=C2)c(=O)nc2sc(CC(=O)N3CCCCC3)nn12` [MLS001139223], with 23.5 µM; and `C[C@@H]1O[C@@H](O[C@H]2[C@H](O)[C@@H](O)[C@H](Oc3c(-c4ccc(O)c(O)c4)oc4cc(O)cc(=O)c-4c3O)O[C@@H]2CO)[C@H](O)[C@H](O)[C@H]1O` [quercetin-3-rham(4)-gluc], with 22.6 µM. Then `C#CCOCCOCCOCCNc1nc(N2CCN(C(=O)CCCCCCCCCCNC(=O)[C@@H](CCC(=O)O)n3cc(CCCCCN)nn3)CC2)nc(N2CCN(C(=O)CCCCCCCCCCNC(=O)[C@H]([C@@H](C)CC)n3cc(CCCCCN)nn3)CC2)n1` [KI-KE], with above 100 µM; and `Nc1c(/C=C2/C=CC(=O)C(O)=C2)c(=O)nc2sc(CC(=O)N3CCCC3)nn12` [MLS001139292], with 9.83 µM. `O=C1C=CC(/C=C/c2nc(O)c([N+](=O)[O-])c(=O)[nH]2)C=C1O` (stereo not drawn) [SMR000524347] displayed an EC50 above 100 µM.

Take `Cc1cc(=O)[nH]c(N=NCc2ccc(O)c(O)c2)n1` [MLS001194906]: the EC50 is 65.7 µM. Then `C#CCOCCOCCOCCNc1nc(N2CCN(C(=O)CCCCCCCCCCNC(=O)Cn3cc(CCCCCN)nn3)CC2)nc(N2CCN(C(=O)CCCCCCCCCCNC(=O)Cn3cc(C[C@@H](C)O)nn3)CC2)n1` [KG-TG], with above 100 µM; and `CN(CCO)c1ccc(CN=Nc2ccc([N+](=O)[O-])cc2S(=O)(=O)Nc2ccccc2C(=O)O)cc1`, with 26 µM; and `O=C1CC(=O)c2c(O)cc(O)c(O)c2C1=O` [4,5,7,8-tetrahydroxy-1,2-naphthoquinone], with above 100 µM. Then `Oc1ccc(CN=Nc2cc(N3CCCC3)nc(N3CCCC3)n2)cc1O` [(4Z)-4-[[2-(2,6-dipyrrolidin-1-ylpyrimidin-4-yl)hydrazinyl]methylidene]-2-hydroxycyclohexa-2,5-dien-1-one], with above 100 µM; and `O=C(NN=CC1=CC(=O)C(=O)CC1)NN=CC1=CC(=O)C(=O)CC1` [1,3-bis[[(Z)-(3-hydroxy-4-oxocyclohexa-2,5-dien-1-ylidene)methyl]amino]urea], with 29.6 µM.
